Efflux and Release data for 1 compound are collected here from ChEMBL document CHEMBL1129674, “Design, synthesis, and biological activity of a potent inhibitor of the neuropeptidase N-acetylated alpha-linked acidic dipeptidase” (J Med Chem, 1996).

Each structure is given as a SMILES string.

Holding throughout (assay type): functional
The species named for experiment [1] is Rattus norvegicus. The experiment can be described thus: In vitro effect of compound on Basal Glutamate Efflux at 10.0 nM.
For experiment [2], the species on record is Rattus norvegicus. Description: In vitro effect KCL-Evoked Giutamate at 0.1 nM.
For experiment [3], the species on record is Rattus norvegicus. Description: In vitro effect of compound on Basal Glutamate Efflux at 1.0 nM.
For experiment [4], the species on record is Rattus norvegicus. The experiment can be described thus: In vitro effect KCL-Evoked Giutamate at 10.0 nM.
The species entered for experiment [5] is Rattus norvegicus. The experiment can be described thus: In vitro effect of compound on Basal Glutamate Efflux at 0.1 nM.
The species entered for experiment [6] is Rattus norvegicus. Description: In vitro effect KCL-Evoked Glutamate at 1.0 nM.

As for `O=C(O)CCC(CP(=O)(O)O)C(=O)O` (stereo unspecified), the Efflux in experiment [1] amounted to 167%; in experiment [3] it was 137%; in experiment [5], 151%. Also, the figures for the Release in experiment [2], in experiment [4] and in experiment [6] were 316, 437 and 368, respectively.
